Literature values as cited in US20180214453A1, “RIVAROXABAN PHARMACEUTICAL COMPOSITIONS” (INTERQUIM, S.A., priority 2015, published 2018).

How the values were obtained:
[1] = CHMP assessment report for Xarelto, slightly soluble
[2] = according to WO05060940 A2, practically insoluble

solubility in organic solvents [1]: 1000 to 10000 µg/mL
solubility in water [2]: about 7 mg/L
Compound: O=C(NC[C@H]1CN(c2ccc(N3CCOCC3=O)cc2)C(=O)O1)c1ccc(Cl)s1 [Rivaroxaban, 5-chloro-N-({(5S)-2-oxo-3-[4-(3-oxomorpholin-4-yl)phenyl]-1,3-oxazolidin-5-yl}methyl)thiophene-2-carboxamide]
